In patent US20260109714A1, “PYRIMIDINE-FUSED RING COMPOUND, AND PREPARATION METHOD THEREFOR AND USE THEREOF” (GENFLEET THERAPEUTICS (SHANGHAI) INC., priority 2022, published 2026):
pIC50: −log10 of the molar value.

Tests used:
[1] = tested on: AsPC-1 human pancreatic cancer cell with KRAS G12D mutation; assay: Cell proliferation inhibition experiment, 3D CellTiter-Glo, AsPC-1; type: cell-based; conditions: AsPC-1 cells, 3D spheroid, 5 days
From the text: (§1) AsPC-1 was purchased from ATCC, Article No.: CRL-1682; AGS was purchased from ATCC, Article No.: CRL-1739; RPMI1640 was purchased from Gibco, Article No.: 11875-093 2235123; F12K was purchased from Gibco, Article No.: 21127-022; FBS was purchased from Gibco, Article No.: 10099-141C; the trypsin (containing EDTA) was purchased from Gibco, Article No.: 25200-072; CellTiter Glo-3D was purchased from Progema, Article No.: G9683; the 384-well spheroid plate was purchased from Corning, Article No.: 3830; the white-bottom opaque 384-well plate was purchased from Corning, Article No.: 3570; the cell counter was purchased from CHEMOMETEC, model: NC-200; the microplate reader was purchased from PerkinElmer, model: Envison;
(§2) AsPC-1, an endogenous human pancreatic cancer cell AsPC-1 with KRAS^G12D mutation, was cultured in RPMI-1640 medium containing 10% FBS. AGS, a human gastric cancer cell line with KRAS^G12D mutation, was cultured in F-12K medium containing 10% FBS. Cells in logarithmic growth period were digested with trypsin (containing EDTA), collected and counted. 800 AsPC-1 cells/well or 400 […] were inoculated in a 384-well spheroid plate, and cultured overnight in an incubator with 5% CO2 to establish a 3D cell model. 1000× compound stock solutions with gradient concentrations of 3.16 times were prepared with DMSO, and 100-fold diluted to 10× compound stock solutions with the culture medium. The 10× compound stock solution was added to each cell culture well on the second day after cell inoculation, to give a final concentration of 1× and DMSO content of 0.1%. DMSO was used as the control, and the culture medium was used as the blank. After the compound was added, the cells were cultured for 5 days. 30 μl CellTiter-Glo working solution was added to each well, and mixed uniformly. The cells were incubated for 30 min, and allowed to stand at room temperature for 30 min. 40 μl of the mixture was transferred to a white-bottom opaque 384-well plate, and the luminescence was read on a microplate reader. The inhibition rate on cell proliferation was calculated by a formula: IR (%)=(RLU of control−RLU of compound)/(RLU of control−RLU of blank)×100%. The gradient concentrations of the compound and the corresponding inhibition rates were fitted by using XLFit four-parameter method, and the IC50 value was calculated. […] The results of some exemplary compounds are shown in Table 2 below (—means not tested).

[2] = tested on: AGS human gastric cancer cell line with KRAS G12D mutation; assay: Cell proliferation inhibition experiment, 3D CellTiter-Glo, AGS; type: cell-based; conditions: AGS cells, 3D spheroid, 5 days
From the text: as §1, §2

[3] = tested on: AGS p-ERK; assay: Cell assay for p-ERK (HTRF, Advance ERK phospho-T202/Y204 kit); type: cell-based, human; conditions: AGS cells (KRAS G12D), 3 hrs with compound, inhibition of p-ERK level
Method: AGS was purchased from ATCC, Article No.: CRL-1739; F12K was purchased from Gibco, Article No.: 21127-022; FBS was purchased from Gibco, Article No.: 10099-141C; the trypsin (containing EDTA) was purchased from Gibco, Article No.: 25200-072; DMSO was purchased from VWRAMRESCO, Article No.: 0231-500ML; the 96-well cell culture plate was purchased from Corning, Article No.: 3599; the white-bottom opaque 96-well plate was purchased from Cisbio, Article No.: 66PL96025; Advance ERK phospho-T202/Y204 kit was purchased from Cisbio, Article No.: 64AERPEH; the cell counter was purchased from CHEMOMETEC, model: NC-200; the microplate reader was purchased from PerkinElmer, model: Envison.
AGS, an endogenous human gastric adenocarcinoma cell line with KRAS^G12D mutation, was cultured in F12K+10% FBS medium. On the first day of the experiment, cells in logarithmic growth period were digested with trypsin (containing EDTA), collected and counted, and about 20,000 cells/well were inoculated in a 96-well cell culture plate and cultured overnight in an incubator with 5% CO2. 1000× compound stock solutions with gradient concentrations of 3.16 times were prepared with DMSO, and 200-fold diluted to 5× compound stock solutions with the above culture medium. The 5× compound stock solution was added to each cell culture well on the second day after cell inoculation, to give a final concentration of 1× and DMSO content of 0.1%. DMSO was used as experimental control. After adding the compound, the cells were continuously cultured for 3 hrs. Then, the culture medium in the well was removed, and 50 μl/well of cell lysis buffer (from Advanced ERK phospho-T202/Y204 kit, the same hereinafter) was added, and mixed uniformly. The cells were cultured for 30 min. Then 16 μl of the mixture was transferred to a white-bottom opaque 96-well plate, and 16 μl of the cell lysis buffer was added to an additional well and used as a blank. After that, 4 μl of p-ERK HTRF antibody mixed solution (from Advanced ERK Phos Pho-T202/Y204 Kit) was added to each well. After incubation for 4 hrs, the fluorescence value (RLU) of HTRF was read on a microplate reader. The inhibition rate of the compound on p-ERK level was calculated by the formula IR (%)=(RLU of control−RLU of compound)/(RLU of control−RLU of blank)×100%. The compound concentration and the corresponding inhibition rate on p-ERK level in the cells were fitted by using Prism 8 four-parameter method, and the IC50 value was calculated.

[4] = Pharmacokinetic evaluation test in mice
[5] = male, CD-1, mouse, plasma, po, 10 mg/kg

Compound	pIC50 [1]	pIC50 [2]	pIC50 [3]	pIC50 ([1]; Homo sapiens, ASPC1, 120 h)	pIC50 ([2]; Homo sapiens, 120 h)	pIC50 ([3]; Homo sapiens)	also measured
C#Cc1c(F)ccc2cc(O)cc(-c3nc4c5c(nc(OC[C@@]67CCCN6C[C@H](F)C7)nc5c3F)N3C[C@H]5CC[C@H](N5)[C@H]3CO4)c12 [Z131-1, 5-ethynyl-6-fluoro-4-((5aS,6S,9R)-1-fluoro-12-(((2R,7aS)-2-fluorotetrahydro-1H-pyrrolizin-7a(5H)-yl)methoxy)-5a,6,7,8,9,10-hexahydro-5H-4-oxo-3,10a,11,13,14-pentaaza-6,9-methanonaphtho[1,8-ab]hepten-2-yl)naphthalen-2-ol]	7.48	8.60	8.80				F (%) bioavailability ([4]; PO group, 10 mpk, male CD-1 mice): 0.9%; AUClast ([4]; PO group, 10 mpk, male CD-1 mice, plasma): 40.4 ng·h/mL
C#Cc1cccc2cc(N)cc(-c3nc4c5c(nc(OCC67CCCN6CCC7=C(F)F)nc5c3F)N3C[C@H]5CC[C@H](N5)[C@H]3[C@H](C)O4)c12 (stereo partly drawn) [Z745, 4-((5S,5aS,6S,9R)-12-((1-(difluoromethylene)tetrahydro-1H-pyrrolizin-7a(5H)-yl)methoxy)-1-fluoro-5-methyl-5a,6,7,8,9,10-hexahydro-5H-4-oxa-3,10a,11,13,14-pentaaza-6,9-methanonaphtho[1,8-ab]hepten-2-yl)-5-ethynylnaphthalen-2-amine]				8.35	8.40	9.08	
CCc1cccc2cc(O)cc(-c3nc4c5c(nc(OC[C@@]67CCCN6C[C@H](F)C7)nc5c3F)N3C[C@H]5CC[C@H](N5)[C@H]3CO4)c12 [Z140-1, 5-ethyl-4-((5aS,6S,9R)-1-fluoro-12-(((2R,7aS s)-2-fluorotetrahydro-1H-pyrrolizin-7a(5H)-yl)methoxy)-5a,6,7,8,9,10-hexahydro-5H-4-oxa-3,10a,11,13,14-pentaaza-6,9-methanonaphtho[1,8-ab]hepten-2-yl)naphthalen-2-ol]							AUC(0-t) [4, 5]: 42.1 ng·h/mL; bioavailability [4, 5]: 2.33%
C#Cc1c(F)ccc2cc(N)cc(-c3nc4c5c(nc(OC[C@]67CCCN6CC(F)(F)C7)nc5c3F)N3C[C@H]5CC[C@H](N5)[C@H]3[C@H](C)O4)c12 [Z739, 4-((5S,5aS,6S,9R)-12-(((R)-2,2-difluorotetrahydro-1H-pyrrolizin-7a(5H)-yl)methoxy)-1-fluoro-5-methyl-5a,6,7,8,9,10-hexahydro-5H-4-oxa-3,10a,11,13,14-pentaaza-6,9-methanonaphtho[1,8-ab]hepten-2-yl)-5-ethynylnaphthalen-2-amine]				8.21	7.96	8.58	
(5S,5aS,6S,9R)-12-((2,6-dimethyltetrahydro-1H-pyrrolizin-7a(5H)-methoxy)-2-(8-ethynyl-6-fluoronaphthalen-1-yl)-1-fluoro-5-methyl-5a,6,7,8,9,10-hexahydro-5H-4-oxa-3,10a,11,13,14-pentaaza-6,9-methanonaphtho[1,8-ab]heptene [Z551]	6.77	7.34	7.21				
C#Cc1cccc2cccc(-c3nc4c5c(nc(OC[C@@]67CCCN6C[C@H](F)C7)nc5c3F)N3C[C@H]5CC[C@H](N5)[C@H]3C(CC)O4)c12 (stereo partly drawn) [Z387, (5S,5aS,6S,9R)-5-ethyl-2-(8-alkynylnaphthalen-1-yl)-1-fluoro-12-(((2R,7aS)-2-fluorotetrahydro-1H-pyrrolizin-7a(5H)-yl)methoxy)-5a,6,7,8,9,10-hexahydro-5H-4-oxy-3,10a,11,13,14-pentaaza-6,9-methanonaphtho[1,8-ab]heptene]	6.69	7.14	7.30				
C#Cc1c(F)ccc2cccc(-c3nc4c5c(nc(OC[C@]67CCCN6CCC7=C)nc5c3F)N3C[C@H]5CC[C@H](N5)[C@H]3[C@H](C)O4)c12 [Z639, (5S,5aS,6S,9R)-2-(8-ethynyl-7-fluoronaphthalen-1-yl)-1-fluoro-5-methyl-12-(((R)-1-methylenetetrahydro-1H-pyrrolizin-7a(5H)-yl)methoxy)-5a,6,7,8,9,10-hexahydro-5H-4-oxa-3,10a,11,13,14-pentaaza-6,9-methanonaphtho[1,8-ab]heptene]	7.03	6.95	7.48				
C#Cc1cccc2cc(N)cc(-c3nc4c5c(nc(OCC67CC(F)(F)CN6CC=C7C)nc5c3F)N3C[C@H]5CC[C@H](N5)[C@H]3[C@H](C)O4)c12 (stereo partly shown) [Z748]				7.89	7.64	8.33	
C#Cc1c(F)ccc2cccc(-c3cc4nc(OC[C@]56CCCN5CCC6=C)nc5c4c(n3)O[C@@H](C)[C@@H]3[C@@H]4CC[C@H](CN53)N4)c12 [Z958, (5S,5aS,6S,9R)-2-(8-ethynyl-7-fluoronaphthalen-1-yl)-5-methyl-12-(((R)-1-methylenetetrahydro-1H-pyrrolizin-7a(5H)-yl)methoxy)-5a,6,7,8,9,10-hexahydro-5H-4-oxy-3,10a,11,13,14-pentaaza-6,9-methanonaphtho[1,8-ab]heptene]				7.16	7.34	7.54	
[2H]C([2H])([2H])[C@@H]1Oc2nc(-c3cc(N)cc4cccc(C#C)c34)c(F)c3nc(OC[C@@]45CCCN4CC(=C(F)F)C5)nc(c23)N2C[C@H]3CC[C@H](N3)[C@@H]12 [Z1044, 4-((5S,5aS,6S,9R)-12-(((S)-2-(difluoromethylene)tetrahydro-1H-pyrrolizin-7a(5H)-yl)methoxy)-1-fluoro-5-(methyl-d3)-5a,6,7,8,9,10-hexahydro-5H-4-oxa-3,10a,11,13,14-pentaaza-6,9-methanonaphtho[1,8-ab]hepten-2-yl)-5-ethynylnaphthalen-2-amine]				9.04	9.28	9.47	
C#Cc1cccc2cc(N)cc(-c3nc4c5c(nc(OCC67CC(F)(F)CN6CCC7=C)nc5c3F)N3C[C@H]5CC[C@H](N5)[C@H]3[C@H](C)O4)c12 (stereo partly shown) [Z738]				7.52	7.35	7.90	
